# In patent US10968203B2, “Pyrimidinyl-pyridyloxy-naphthyl compounds and methods of treating IRE1-related diseases and disorders” (Genentech, Inc., priority 2017, dated 2021):
# Counter-ions that a name gives are not always drawn.
# System: XBP1s-luc 293 LUC
# Experiment: cellular PD assay, XBP1s-LUC reporter (Example 903)
# Assay type: cell-based
# Settings: Table 1; read-out: XBP1s-luc 293 LUC (IC50)
# In short: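 A luciferase fusion, in frame and expressed only when the XBP1 transcript is spliced, served as the readout of cellular IRE1α activity in an XBP1-Luc reporter line.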
row,Structure (SMILES),IC50 [µM]
1,"Cc1ccc2c(NS(=O)(=O)CC3CCCC3)cccc2c1Oc1ncccc1-c1ccnc(N[C@H]2CCCNC2)n1 [Example 128, (S)-1-Cyclopentyl-N-(6-methyl-5-((3-(2-(piperidin-3-ylamino)pyrimidin-4-yl)pyridin-2-yl)oxy)naphthalen-1-yl)methanesulfonamide]",0.317
2,"Cc1ccc2c(NS(=O)(=O)CCC(C)C)c(F)ccc2c1Oc1ncccc1-c1ccnc(N[C@H]2CCCNC2)n1 [Example 243, (S)—N-(2-Fluoro-6-methyl-5-((3-(2-(piperidin-3-ylamino)pyrimidin-4-yl)pyridin-2-yl)oxy)naphthalen-1-yl)-3-methylbutane-1-sulfonamide]",0.068
3,"Cc1ccc2c(NC(=O)[C@H]3CC34CC4)c(F)ccc2c1Oc1ncccc1-c1ccnc(N[C@@H]2CNC[C@H](C)C2)n1 (single isomer, unassigned) [Example 388]",0.136
4,"Cc1ccc2c(NC(=O)[C@@H]3CC34CCCC4)cccc2c1Oc1ncccc1-c1ccnc(N[C@H]2CCCNC2)n1 (single isomer, unassigned) [Example 254]",0.069
5,"CCCS(=O)(=O)Nc1cccc2c(Oc3ncccc3-c3ccnc(N[C@H]4CC[C@H](C)NC4)n3)c(C)ccc12 (single isomer, unassigned) [Example 196]",0.162
6,"Cc1ccc2c(NC(=O)C3CC(F)(F)C3)cccc2c1Oc1ncccc1-c1ccnc(N[C@H]2CCCNC2)n1 [Example 219, (S)-3,3-Difluoro-N-(6-methyl-5-(3-(2-(piperidin-3-ylamino)pyrimidin-4-yl)pyridin-2-yloxy)naphthalen-1-yl)cyclobutanecarboxamide]",0.119
7,"Cc1ccc2c(NS(=O)(=O)Cc3ccccc3)cccc2c1Oc1ncccc1-c1ccnc(N[C@H]2CC[C@H](N)CC2)n1 [Example 152, N-(5-((3-(2-(((trans)-4-Aminocyclohexyl)amino)pyrimidin-4-yl)pyridin-2-yl)oxy)-6-methylnaphthalen-1-yl)-1-phenylmethanesulfonamide]",0.241
8,"COCCS(=O)(=O)Nc1c(F)ccc2c(Oc3ncccc3-c3ccnc(N[C@H]4CCCNC4)n3)c(C)ccc12 [Example 185, (S)—N-(2-Fluoro-6-methyl-5-((3-(2-(piperidin-3-ylamino)pyrimidin-4-yl)pyridin-2-yl)oxy)naphthalen-1-yl)-2-methoxyethanesulfonamide]",0.0735
9,"Cc1ccc2c(NS(=O)(=O)CC(F)(F)F)c(F)ccc2c1Oc1ncccc1-c1ccnc(N[C@@H]2CNC[C@H](C)C2)n1 [Example 375, 2,2,2-Trifluoro-N-(2-fluoro-6-methyl-5-((3-(2-(((3S,5R)-5-methylpiperidin-3-yl)amino)pyrimidin-4-yl)pyridin-2-yl)oxy)naphthalen-1-yl)ethanesulfonamide]",0.0132
10,"Cc1ccc2c(NC(=O)[C@H]3C[C@@H]3F)cccc2c1Oc1ncccc1-c1ccnc(N[C@H]2CCCNC2)n1 [Example 235, (1R,2S)-2-Fluoro-N-(6-methyl-5-((3-(2-(((S)-piperidin-3-yl)amino)pyrimidin-4-yl)pyridin-2-yl)oxy)naphthalen-1-yl)cyclopropane-1-carboxamide]",0.145
11,"Cc1ccc2c(N3CCCCCC3=O)cccc2c1Oc1ncccc1-c1ccnc(N[C@H]2CCCNC2)n1 [Example 249, (S)-1-(6-Methyl-5-((3-(2-(piperidin-3-ylamino)pyrimidin-4-yl)pyridin-2-yl)oxy)naphthalen-1-yl)azepan-2-one]",0.309
12,"Cc1cc(CNc2cccc3c(Oc4ncccc4-c4ccnc(N[C@H]5CCCNC5)n4)c(C)ccc23)no1 [Example 280, (S)-4-(2-((2-Methyl-5-(((5-methylisoxazol-3-yl)methyl)amino)naphthalen-1-yl)oxy)pyridin-3-yl)-N-(piperidin-3-yl)pyrimidin-2-amine]",0.134
13,Cc1ccc2c(NC[C@H](O)C(F)(F)F)cccc2c1Oc1ncccc1-c1ccnc(N[C@H]2CCCNC2)n1 [Example 299],0.00858
14,"Cc1ccc2c(NCC[C@H]3CC3(F)F)cccc2c1Oc1ncccc1-c1ccnc(N[C@H]2CCCNC2)n1 (single isomer, unassigned) [Example 292]",0.294
15,"Cc1ccc2c(NS(=O)(=O)Cc3ccccc3F)c(F)ccc2c1Oc1ncccc1-c1ccnc(N[C@H]2CCCNC2)n1 [Example 391, (S)—N-(2-Fluoro-6-methyl-5-((3-(2-(piperidin-3-ylamino)pyrimidin-4-yl)pyridin-2-yl)oxy)naphthalen-1-yl)-1-(2-fluorophenyl)methanesulfonamide]",0.00277
16,"Cc1ccc2c(NC[C@H](O)C(F)(F)F)cccc2c1Oc1ncccc1-c1ccnc(N[C@@H]2CNC[C@H](C)C2)n1 [Example 321, (S)-1,1,1-Trifluoro-3-((6-methyl-5-((3-(2-(((3S,5R)-5-methylpiperidin-3-yl)amino)pyrimidin-4-yl)pyridin-2-yl)oxy)naphthalen-1-yl)amino)propan-2-ol]",0.00736
17,"Cc1ccc2c(NC(=O)C3(CF)CC3)cccc2c1Oc1ncccc1-c1ccnc(N[C@H]2CCCNC2)n1 [Example 242, (S)-1-(Fluoromethyl)-N-(6-methyl-5-((3-(2-(piperidin-3-ylamino)pyrimidin-4-yl)pyridin-2-yl)oxy)naphthalen-1-yl)cyclopropane-1-carboxamide]",0.361
18,"Cc1ccc2c(NC(=O)[C@H]3CC34CCC4)cccc2c1Oc1ncccc1-c1ccnc(N[C@H]2CCCNC2)n1 (single isomer, unassigned) [Example 339]",0.137
19,"Cc1cc(S(=O)(=O)Nc2cccc3c(Oc4ncccc4-c4ccnc(N[C@H]5CCCNC5)n4)c(C)ccc23)sn1 [Example 168, (S)-3-Methyl-N-(6-methyl-5-((3-(2-(piperidin-3-ylamino)pyrimidin-4-yl)pyridin-2-yl)oxy)naphthalen-1-yl)isothiazole-5-sulfonamide]",0.172
20,"Cc1ccc2c(NC(=O)C3CC3C(F)(F)F)cccc2c1Oc1ncccc1-c1ccnc(N[C@H]2CCCNC2)n1 (single isomer, unassigned) [Example 228]",0.088
21,"Cc1ccc2c(NCC[C@H](C)O)cccc2c1Oc1ncccc1-c1ccnc(N[C@H]2CCCNC2)n1 (single isomer, unassigned) [Example 202]",0.123
22,"CCCS(=O)(=O)Nc1cccc2c(Oc3ncc(Cl)cc3-c3ccnc(N[C@H]4CCCNC4)n3)c(C)ccc12 [Example 385, (S)—N-(5-((5-Chloro-3-(2-(piperidin-3-ylamino)pyrimidin-4-yl)pyridin-2-yl)oxy)-6-methylnaphthalen-1-yl)propane-1-sulfonamide]",0.366
23,"Cc1ccc2c(NS(=O)(=O)Cc3ccccc3F)cccc2c1Oc1ncccc1-c1ccnc(N[C@H]2CCCNC2)n1 [Example 145, (S)-1-(2-Fluorophenyl)-N-(6-methyl-5-((3-(2-(piperidin-3-ylamino)pyrimidin-4-yl)pyridin-2-yl)oxy)naphthalen-1-yl)methanesulfonamide]",0.015
24,"Cc1ccc2c(NS(=O)(=O)Cc3c(F)cccc3F)c(F)ccc2c1Oc1ncccc1-c1ccnc(N[C@H]2CCCNC2)n1 [Example 213, (S)-1-(2,6-Difluorophenyl)-N-(2-fluoro-6-methyl-5-((3-(2-(piperidin-3-ylamino)pyrimidin-4-yl)pyridin-2-yl)oxy)naphthalen-1-yl)methanesulfonamide]",0.00457
25,"Cc1ccc2c(NCC(C)(C)O)cccc2c1Oc1ncccc1-c1ccnc(N[C@H]2CCCNC2)n1 [Example 306, (S)-2-Methyl-1-((6-methyl-5-((3-(2-(piperidin-3-ylamino)pyrimidin-4-yl)pyridin-2-yl)oxy)naphthalen-1-yl)amino)propan-2-ol]",0.24

# Same assay, conditions: Table 2; read-out: XBP1s-luc 293 LUC (IC50)
row,Structure (SMILES),IC50 [µM]
1,"Cc1ccc2c(NS(=O)(=O)Cc3ccccc3F)c(F)ccc2c1Oc1ncccc1-c1ccnc(N[C@H]2CNC[C@H](F)C2)n1 (single isomer, unassigned) [Example 463, hydrochloride]",0.268
2,"Cc1ccc2c(NS(=O)(=O)N(C)CC(F)(F)F)c(F)ccc2c1Oc1ncccc1-c1ccnc(N[C@H]2CNC[C@H](F)C2)n1 (single isomer, unassigned) [Example 499, hydrochloride]",0.68
3,"CC/C(F)=C/S(=O)(=O)Nc1c(F)ccc2c(Oc3ncccc3-c3ccnc(N[C@H]4CCCNC4)n3)c(C)ccc12 [Example 457, (S,Z)-2-Fluoro-N-(2-fluoro-6-methyl-5-((3-(2-(piperidin-3-ylamino)pyrimidin-4-yl)pyridin-2-yl)oxy)naphthalen-1-yl)but-1-ene-1-sulfonamide hydrochloride]",0.105
4,"CCCCS(=O)(=O)Nc1c(F)ccc2c(Oc3ncccc3-c3ccnc(N[C@H]4CCCNC4)n3)c(C)ccc12 [Example 397, (S)—N-(2-Fluoro-6-methyl-5-((3-(2-(piperidin-3-ylamino)pyrimidin-4-yl)pyridin-2-yl)oxy)naphthalen-1-yl)butane-1-sulfonamide hydrochloride]",0.034
5,"Cc1ccc2c(NS(=O)(=O)CC3CC3)c(F)ccc2c1Oc1ncccc1-c1ccnc(N[C@H]2CCCNC2)n1 [Example 405, (S)-1-Cyclopropyl-N-(2-fluoro-6-methyl-5-((3-(2-(piperidin-3-ylamino)pyrimidin-4-yl)pyridin-2-yl)oxy)naphthalen-1-yl)methanesulfonamide hydrochloride]",0.025
6,"CO[C@@H](CNc1cccc2c(Oc3ncccc3-c3ccnc(N[C@@H]4CNC[C@@H](F)C4)n3)c(C)ccc12)C(F)(F)F (single isomer, unassigned) [Example 493, hydrochloride]",0.021
7,"Cc1ccc2c(NS(=O)(=O)CC3CCC3)c(F)ccc2c1Oc1ncccc1-c1ccnc(N[C@H]2CCCNC2)n1 [Example 400, (S)-1-Cyclobutyl-N-(2-fluoro-6-methyl-5-((3-(2-(piperidin-3-ylamino)pyrimidin-4-yl)pyridin-2-yl)oxy)naphthalen-1-yl)methanesulfonamide hydrochloride]",0.026
8,"CO[C@H](C)CS(=O)(=O)Nc1c(F)ccc2c(Oc3ncccc3-c3ccnc(N[C@H]4CCCNC4)n3)c(C)ccc12 (single isomer, unassigned) [Example 394, hydrochloride]",0.028
